# In patent publication US20260132128A1, “COMPOUND FOR RECOVERING P53 MUTATION FUNCTION AND USE THEREOF” (SHENZHEN ZHONGGE BIOLOGICAL TECHNOLOGY CO., LTD., priority 2022, published 2026):
# pEC50: −log10 of the molar value.
# Legend:
# [1] = system: BxPC-3 cells; assay: BxPC-3 cell proliferation test (CTG); assay type: cell-based; conditions: Homo sapiens, 144 h, 6 days
# Method: To detect the inhibitory effects of the aforementioned compounds on the proliferation ability of BxPC-3 cells, 125 BxPC-3 cells (ATCC®CRL-1687) were seeded into a 384-well plate (Corning 3765), 35 μL per well, and placed in a constant temperature incubator at 37° C. and 5% CO2 overnight. Then, 40 nL of the compound was added to the 384-well plate using an Echo 655 Liquid Handler, with a maximum final concentration of 10 μM, 1:3 serial dilution, and in a total of 10 doses. Incubation was performed at 37° C., 5% CO2 for 6 days. The plate was taken out from the incubator and equilibrated at room temperature for 10 minutes. 20 μL of CTG (Promage G7572) was added to each well of the plate according to the platemap. The plate was centrifuged at 1000 rpm for 1 minute. The lysis of cells was induced by mixing on a shaker for 2 minutes. The plate was centrifuged at 1000 rpm for 1 minute. Incubation was performed at room temperature for 10 minutes to stabilize luminescence signals. Luminescence values were recorded by Envision (PerkinElmer 2105-0020). GraphPad 9.0 was used to fit the inhibition rate and compound concentration into a nonlinear regression curve (dose response-variable slope) to calculate GI50, inhibition rate={1−(A−B)/(C−B)}*100%, A=signal value of compound; B=average signal of blank control; C=average signal of negative control (wherein the negative control was 0.1% DMSO).
# [2] = target: T1, p53 Y220C (Homo sapiens, UniProt P04637, P309S/R273H/Y220C); assay: DNA binding test (HTRF): binding of P53Y220C protein to DNA; assay type: biochemical; conditions: HTRF, activation of p53 Y220C (aa 94-312) binding to biotin DNA
# T1 construct: a truncated mutant containing only amino acids 94-312 of p53; made in house; host or cells: E. coli
# [3] = Liver microsome stability test, mouse (MLM); assay type: in vitro ADME; conditions: mouse liver microsomes, NADPH; read-out: T1/2 (min) Mouse
# Method: The 10 mM test compound/ketanserin (Energy Chemical, Cat. No. E020711) stock solution was diluted with acetonitrile to 0.5 mM compound/reference compound. The frozen 100 mM NADPH (MCE, Cat. No. HYF003/CS-4998) was diluted with phosphate buffer solution to a concentration of 6 mM; 20 mg/mL HLM (BioIVT, Cat. No. X008067) or MLM (BioIVT, Cat. No. M00501) was diluted with phosphate buffer solution to a concentration of 0.75 mg/ml, and added to a 96-round well plate, respectively, and shaken evenly on an oscillator at 600 rpm. The above oscillated samples were pipetted 3 times with an electric pipettor and dispensed into a new 96-well plate (containing NADPH group (n=2), NADPH-free group was added at 0 and 45 min (n=1)), and there were a total of 5 groups of 0, 5, 15, 30 and 45 min, respectively. After pre-incubation of the 5 groups of samples at 37° C. for 5 min, glacial acetonitrile was quickly added to the 0 min group for precipitation, and after rapid vortexing, K-Buffer or NADPH was added with an electric pipettor. The remaining groups were sequentially added with 6 mM NADPH to start the reaction in the order of 45, 30, 15 and 5 min samples, and K-Buffer solution was added to the NADPH-free group. After mixing at 1000 rpm in an oscillating mixer for 10 s, they were continuously incubated at 37° C. for the corresponding time. The reaction was terminated by quickly adding glacial acetonitrile internal standard using an electric pipettor; after vortexing at 900 rpm for 10 seconds, heat sealing was performed, oscillation was performed on an oscillator for 10 minutes, centrifugation was performed at 4000 rpm for 50 minutes, the supernatant was collected and diluted with pure water, and the test compound and the reference compound were quantified by LC-MS/MS analysis.
# T1 sequence (P04637 94-312, stated change not applied): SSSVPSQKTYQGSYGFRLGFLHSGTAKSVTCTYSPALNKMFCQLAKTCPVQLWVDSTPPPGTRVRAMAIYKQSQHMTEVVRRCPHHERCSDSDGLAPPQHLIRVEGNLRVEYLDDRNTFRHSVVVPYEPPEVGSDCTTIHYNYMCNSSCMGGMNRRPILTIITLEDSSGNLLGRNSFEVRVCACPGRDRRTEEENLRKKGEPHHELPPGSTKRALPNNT
SMILES,GI50 [1],pEC50 [2],half-life [3]
CNC(=O)c1ccc(NCC#Cc2nc3c(NC4CC[C@@H](N5CC6(COC6)C5)C[C@@H]4F)cccn3c2CC(F)(F)F)c(OCF)c1 (some centres unmarked) [Compound 58],< 1000 nM,–,33 min
"CNC(=O)c1ccc(NCC#Cc2nc3c(NC4CCC(N5CC6(COC6)C5)CC4F)cccn3c2CC(F)(F)F)c(OC)c1 (single isomer, unassigned) [Compound 35-6i]",< 1000 nM,> 7.00,19.2 min
COc1cc(C(=O)NC2CC2)ccc1NCC#Cc1nc2c(NC3CC[C@@H](N4CC5(COC5)C4)C[C@@H]3F)cccn2c1CC(F)(F)F (some centres unmarked) [Compound 54],–,> 7.00,78.4 min

# Now from value to compound:
GI50 [1],pEC50 [2],half-life [3],SMILES
< 1000 nM,> 7.00,–,CNC(=O)c1ccc(NCC#Cc2nc3c(N[C@@H]4CCN(C)C[C@@H]4F)cccn3c2CC(F)(F)F)c(OC)c1 [Compound 5]
–,> 7.00,22 min,"[2H]C([2H])([2H])NC(=O)c1ccc(NCC#Cc2cc3c(NC4CCC(N5CC6(COC6)C5)CC4F)cccn3c2CC(F)(F)F)c(OC([2H])([2H])[2H])c1 (single isomer, unassigned) [Compound 74d]"
< 1000 nM,> 7.00,55 min,[2H]C([2H])([2H])NC(=O)c1ccc(NCC#Cc2nc3c(NC4CC[C@@H](N5CC6(COC6)C5)C[C@@H]4F)cccn3c2CC(F)(F)F)c(OC([2H])([2H])[2H])c1 (some centres unmarked) [Compound 64]
